Legend:
[1] = system: AHR-dependent transcription of the CYP1A1 gene; assay: CYP1A1 induction in mouse macrophages; assay type: cell-based
Experimental: (§1) Mouse macrophages were also used to test AHR-dependent transcription of the CYP1A1 gene in vivo. Finally, the activity of exemplary compounds of Formula (I) described herein was tested in the human […] cell line U937. The U937 cell line is derived from a patient with diffuse histiocytic lymphoma. Tables 2-4 summarize structure-activity relationship data collected for exemplary, non-limiting compounds of Formula (I) described herein.

[2] = target: T1, aryl hydrocarbon receptor (AHR) (Homo sapiens, UniProt P35869); assay: XRE-driven luciferase reporter assay, human HepG2; conditions: for XRE luciferase Emax (fold): fold over vehicle; for XRE luciferase Emax (footnote c): Emax defined as fold increase at highest concentration tested (10 μM); for fold less active / fold decrease in activity: AHR activity relative to compound #10
T1 sequence (P35869 11-848): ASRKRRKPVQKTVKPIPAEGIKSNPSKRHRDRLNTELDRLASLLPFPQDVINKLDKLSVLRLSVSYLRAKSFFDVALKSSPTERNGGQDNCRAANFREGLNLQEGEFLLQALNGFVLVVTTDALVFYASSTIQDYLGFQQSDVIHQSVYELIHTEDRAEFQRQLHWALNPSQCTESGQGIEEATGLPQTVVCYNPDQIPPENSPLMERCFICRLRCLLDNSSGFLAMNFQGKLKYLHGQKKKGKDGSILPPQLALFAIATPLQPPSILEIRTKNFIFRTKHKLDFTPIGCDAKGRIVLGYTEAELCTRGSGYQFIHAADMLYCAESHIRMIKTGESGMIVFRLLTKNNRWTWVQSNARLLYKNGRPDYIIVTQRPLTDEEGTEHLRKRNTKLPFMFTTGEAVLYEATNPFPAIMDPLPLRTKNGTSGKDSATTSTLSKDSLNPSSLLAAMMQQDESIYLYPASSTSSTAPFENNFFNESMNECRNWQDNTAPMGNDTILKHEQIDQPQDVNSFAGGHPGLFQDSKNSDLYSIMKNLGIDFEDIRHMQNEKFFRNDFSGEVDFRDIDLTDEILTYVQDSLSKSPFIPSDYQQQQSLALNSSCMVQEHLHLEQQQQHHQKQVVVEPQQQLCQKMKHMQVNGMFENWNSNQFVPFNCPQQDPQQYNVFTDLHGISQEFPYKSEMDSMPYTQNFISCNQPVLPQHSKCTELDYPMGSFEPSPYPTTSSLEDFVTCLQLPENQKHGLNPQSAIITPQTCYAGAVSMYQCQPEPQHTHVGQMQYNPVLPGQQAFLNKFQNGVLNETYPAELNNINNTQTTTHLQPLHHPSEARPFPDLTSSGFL
Experimental: The Human HepG2 cell line is a human liver cancer cell line, and provide a relevant in vitro AHR activity model. These Hep2G cells have been modified to stably express an AHR-responsive (XRE) firefly luciferase reporter gene to give Hep2G-XRE cells. The expression of luciferase should primarily reflect AHR-dependent transcription controlled by XRE.
Transfected cells were treated with AhR agonist (10^−5-10^−12) for 4.5 h in full medium. Cells were lysed and luciferase was activated using the Luciferase Assay System (Promega). Luminescence signals were measured with a FluroStar Omega microplate reader. Luminescence signals of compound treated groups were normalized to vehicle (DMSO) treated control and plotted as concentration dependent fold changes.

[3] = system: AHR-dependent transcription of the CYP1A1 gene; assay: CYP1A1 induction in human U937 cells; assay type: cell-based; conditions: Human U937, 1 μM
Experimental: as §1

[4] = XRE luciferase EC50, Human HepG2, least square curve fitting, >10,000 = does not reach 50% of Emax of ITE at 10 μM (highest concentration tested)
[5] = XRE luciferase EC50 (footnote a), Human HepG2, EC50 defined as concentration induced 50% of Emax of ITE

Compound	CYP1A1 induction (% of ITE ± SEM) ([1]; 50 nM)	XRE luciferase Emax (fold) ([2]; Human HepG2)	EC50 [2, 4] [nM]	CYP1A1 induction (% of ITE ± SEM) ([1]; 5 μM)	further results
COC(=O)c1cccc(C(=O)c2c[nH]c3c(Cl)cccc23)n1 [Compound 17]	49 ± 19 % of ITE	68	1.3	–	–
COc1ccc(C(=O)c2c[nH]c3ccccc23)cc1 [Compound 28]	19 ± 8 % of ITE	–	–	–	–
COC(=O)c1cccc(C(=O)c2c[nH]c3c2ccc2ccccc23)n1 [Compound 22]	57 ± 5 % of ITE	–	–	105 ± 3 % of ITE	XRE luciferase Emax (footnote c) ([2]; Human HepG2): (121)^c fold; EC50 [2, 5]: 14 nM
COC(=O)c1cccc(C(=O)c2c[nH]c3ccc(OC)cc23)n1 [Compound 19]	121 ± 12 % of ITE	131	1800	120 ± 13 % of ITE	–
CC(=O)Oc1cccc(C(=O)c2c[nH]c3ccccc23)c1 [Compound 12]	5 ± 3 % of ITE	–	–	–	–
COC(=O)c1cccc(C(=O)c2c[nH]c3ccc(Br)cc23)n1 [Compound 20]	138 ± 8 % of ITE	55	6.2	144 ± 20 % of ITE	–
O=C(c1ccccc1)c1c[nH]c2ccccc12 [Compound 7]	–	–	–	0.6 ± 0.2 % of ITE	–
COC(=O)c1ccc(C(=O)c2c[nH]c3ccccc23)s1 [Compound 24]	99 ± 18 % of ITE	–	–	59 ± 22 % of ITE	CYP1A1 induction (% of ITE ± SEM) [3]: 244 ± 28 % of ITE; CYP1A1 induction (% of ITE ± SEM) ([1]; 5 nM): 60 ± 13 % of ITE
COC(=O)c1cccc(C(=O)c2c[nH]c3c4c(ccc23)CCC4)n1 [Compound 21]	129 ± 8 % of ITE	53	27	118 ± 5 % of ITE	–
O=C(c1cccc(Cl)n1)c1c[nH]c2ccccc12 [Compound 6]	86 ± 47 % of ITE	–	–	–	XRE luciferase Emax (footnote c) ([2]; Human HepG2): (109)^c fold; EC50 [2, 5]: 29 nM
COC(=O)c1ccc(C(=O)c2c[nH]c3ccccc23)cc1 [Compound 25]	20 ± 16 % of ITE	–	–	–	–
CC(C)OC(=O)c1cccc(C(=O)c2c[nH]c3ccccc23)n1 [Compound 1]	22 ± 11 % of ITE	37	370	128 ± 11 % of ITE	–
COC(=O)c1cccc(C(=O)c2c[nH]c3ccccc23)c1 [Compound 8]	3 ± 1 % of ITE	–	> 10000	–	XRE luciferase Emax (footnote c) ([2]; Human HepG2): (2.1)^c fold
COC(=O)c1cccc(C(=O)c2c[nH]c3cccc(Cl)c23)n1 [Compound 14]	141 ± 83 % of ITE	–	> 10000	–	XRE luciferase Emax (footnote c) ([2]; Human HepG2): (19)^c fold
CCOC(=O)c1cccc(C(=O)c2c[nH]c3ccccc23)n1 [Compound 147, ethyl 6-(1H-indole-3-carbonyl)pyridine-2-carboxylate]	8 ± 2 % of ITE	40	840	52 ± 28 % of ITE	fold less active / fold decrease in activity [2]: > 250 fold
O=C(O)c1cccc(C(=O)c2c[nH]c3ccccc23)n1 [Compound 3]	27 ± 17 % of ITE	47	640	97 ± 16 % of ITE	–
COC(=O)c1cccc(C(=O)c2c[nH]c3ccc(Cl)cc23)n1 [Compound 15]	150 ± 36 % of ITE	62	7.6	89 ± 44 % of ITE	–
COC(=O)c1cccc(C(=O)c2cn(C)c3ccccc23)n1 [Compound 13]	29 ± 10 % of ITE	55	190	50 ± 20 % of ITE	–

Compound	CYP1A1 induction (% of ITE ± SEM) ([1]; 50 nM)	XRE luciferase Emax (fold) ([2]; Human HepG2)	EC50 [2, 4] [nM]	CYP1A1 induction (% of ITE ± SEM) ([1]; 5 μM)	further results
COC(=O)c1ccc(C(=O)c2c[nH]c3ccccc23)cn1 [Compound 23]	–	74	4700	65 ± 9 % of ITE	–
O=C(O)c1cccc(C(=O)c2c[nH]c3ccccc23)n1 [Compound 145, 6-(1H-indole-3-carbonyl)pyridine-2-carboxylic acid]	–	–	–	–	IC50 [2]: 640 nM
O=C(OC1CCCCC1)c1cccc(C(=O)c2c[nH]c3ccccc23)n1 [Compound 2]	19 ± 4 % of ITE	55	12000	95 ± 7 % of ITE	–
COC(=O)c1cccc(C(=O)c2c[nH]c3cc(Cl)ccc23)n1 [Compound 16]	169 ± 59 % of ITE	–	–	122 ± 48 % of ITE	XRE luciferase Emax (footnote c) ([2]; Human HepG2): (141)^c fold; EC50 [2, 5]: 1.6 nM
COC(=O)c1cccc(C(=O)c2c[nH]c3ncccc23)n1 [Compound 18]	11 ± 4 % of ITE	42	18	–	–
COC(=O)c1cccc(C(=O)c2c(C)[nH]c3ccccc23)n1 [Compound 144, methyl 6-(2-methyl-1H-indole-3-carbonyl)pyridine-2-carboxylate]	–	–	> 10000	6 ± 2 % of ITE	CYP1A1 induction (% of ITE ± SEM) [3]: 29 ± 14 % of ITE; XRE luciferase Emax (footnote c) ([2]; Human HepG2): (22)^c fold
COC(=O)c1cccc(C(=O)c2n[nH]c3ccccc23)c1 [reference compound]	14 ± 4 % of ITE	117	680	90 ± 2 % of ITE	CYP1A1 induction (% of ITE ± SEM) [3]: 48 ± 6 % of ITE
COC(=O)c1cccc(C(=O)c2c[nH]c3ccccc23)c1 [Compound 202, methyl 3-(1H-indole-3-carbonyl)benzoate]	–	–	–	–	CYP1A1 induction (% of ITE ± SEM) [3]: 3 ± 1 % of ITE
COC(=O)c1ccccc1C(=O)c1c[nH]c2ccccc12 [Compound 26]	10 ± 7 % of ITE	–	–	–	–
O=C(c1ccccn1)c1c[nH]c2ccccc12 [Compound 124, 1H-indol-3-yl(2-pyridyl)methanone]	–	20	> 10000	15 ± 6 % of ITE	–
COc1cccc(C(=O)c2n[nH]c3ccccc23)c1 [reference compound]	1 ± 0.2 % of ITE	–	–	27 ± 3 % of ITE	CYP1A1 induction (% of ITE ± SEM) [3]: 194 ± 18 % of ITE; XRE luciferase Emax (footnote c) ([2]; Human HepG2): (87)^c fold; EC50 [2, 5]: 2000 nM
COc1cc(C(=O)c2c[nH]c3ccccc23)ccn1 [Compound 29]	–	65	2600	44 ± 2 % of ITE	–
O=C(c1cccc(N2CCOCC2)n1)c1c[nH]c2ccccc12 [Compound 110, 1H-indol-3-yl-(6-morpholino-2-pyridyl)methanone]	–	59	62	46 ± 4 % of ITE	fold less active / fold decrease in activity [2]: ~20 fold
CN(C)C(=O)c1cccc(C(=O)c2c[nH]c3ccccc23)n1 [Compound 4]	–	23	> 10000	2.5 ± 1.4 % of ITE	–
COc1ccccc1C(=O)c1c[nH]c2ccccc12 [Compound 27]	6 ± 1 % of ITE	–	–	–	–
COC(=O)c1ccc(C(=O)c2c[nH]c3ccccc23)nc1 [Compound 11, methyl 6-(1H-indole-3-carbonyl)pyridine-3-carboxylate]	2 ± 1 % of ITE	–	> 10000	26 ± 10 % of ITE	XRE luciferase Emax (footnote c) ([2]; Human HepG2): (2.3)^c fold
COc1cnc(C(=O)c2c[nH]c3ccccc23)cn1 [Compound 30]	–	–	–	41 ± 3 % of ITE	XRE luciferase Emax (footnote c) ([2]; Human HepG2): (30)^c fold; EC50 [2, 5]: 8.1 nM
COc1cccc(C(=O)c2c[nH]c3ccccc23)n1 [Compound 5]	168 ± 86 % of ITE	48	96	101 ± 33 % of ITE	CYP1A1 induction (% of ITE ± SEM) [3]: 165 ± 27 % of ITE; CYP1A1 induction (% of ITE ± SEM) ([1]; 5 nM): 57 ± 22 % of ITE
